Experimental data: patent publication US6610699B2, “Use of L-carnitine and its alkanoyl derivatives in the preparation of medicaments with anticancer activity” (Sigma-Tau Industrie Farmaceutiche Riunite S.p.A., priority 1998, dated 2003)

Tests used:
female BALB/c mice = experiment: Taxol (i.p.)-induced neutropenia in the mouse, blood cell count
Method: In this model, the amount of circulating neutrophils was measured.
Acetyl L-carnitine inner salt (sterile ampoule), solubilised in water for injectable preparations, was used. Each ampoule of ALC is dissolved in 4 ml of water for injections (Solution O). Two ml of (O) are brought up to 25 ml with sterile PBS (Sigma), so as to have 10 mg/ml for subcutaneous administration (100 mg/kg/ 10 ml); 0.8 ml of (O) are brought to 50 ml with PBS in order to have 2 mg/ml for oral administration (100 mg/kg/50 ml).
(§1) At the time of use, the 12 mg/ml solution is diluted 1:4 with saline in phosphate buffer (PBS) (SIGMA,) and injected i.p. (30 mg/kg/10 ml).
(§2) The mice are anaesthetised with CO2; blood is taken from the retro-orbital plexus (0.5 ml blood/mouse) and placed in Eppendorf test tubes containing 10 μl of Vister heparin (5000 U/ml). The animals are sacrificed by cervical dislocation. Later, the bone marrow samples are taken.
(§3) The instrument is used according to the instructions provided in the operating manual. The blood (25 μl) is taken from the dilutor and brought to a volume of 10 ml with isotonic solution (PLTA Saline, Delcon) in a beaker (dil. 1:400) (Solution A). From Solution A, the dilutor takes 100 μl and brings them to 10 ml (dil. 1:100) in another beaker (Solution B). To Solution A are added 3 drops of lysing agent (Emosol, Delcon), the solution is mixed by hand and left to act for approximately 2 minutes so that the red blood cells are lysed and HGB (haemoglobin) released. Solution A containing the lysing agent is used for the WBC and haemoglobin (HGB) readings. Solution B is used for the RBC and platelet (PLT) readings.
Double readings are done on each sample, and between one sample and the next, the instrument is washed using isotonic solution,
(§4) Superfrost plus slides (25×75×1 mm) (Mensel-Glaser), ready for use, are adopted. The blood (8 μl) is deposited on the right-hand side of the slide; another slide, placed at a 45° angle, to the left of the blood, is drawn back until in comes into contact with the drop which spreads rapidly along the contact line between the two slides; the slide is moved forwards with a smooth, rapid movement so as to obtain a thin film of blood. The slide is left to dry in air, stained with Diff-Quick (DADE) dye, according to the attached instructions, and dried again in air.
(§5) The slides are immersed in Histolemon solution (Carlo Erba) for 2 sec.; a drop of synthetic mountant (Shandon) os deposited at the centre of the slide and a cover slide is placed over it covering the entire blood smear, taking care not to form bubbles between the two slides. The slides are dried and then the WBC count is performed, up to 100, with an optical microscope, after depositing a drop of cedar oil on the slide.
(§6) The quantity of […], assessed using the haemocytometer, is multiplied by the percentage value of the corresponding neutrophil granulocytes of the leukocyte formula. This parameter, divided by 100, expresses the value of neutrophils/mm^3 blood.
Data are expressed as means ±SE. Comparison between the neutrophil granulocyte values obtained for the different groups is done using ANOVA. Abnormal values are subjected to the Dixon test.

[1] = tested on: BALB/c mice inoculated with murine carcinoma of the breast (L-MM3); experiment: Taxol-induced neutropenia in mice with L-MM3 carcinoma of the breast, blood cell count
Method: In addition, in this tumour model, the amount of circulating neutrophils was measured.
Acetyl L-carnitine inner salt (sterile ampoule), solubilised in water for injectable preparations, was used. Each ampoule of ALC is dissolved in 4 ml of water for injections (Solution O). 0.8 ml of (O) are brought to 50 ml with sterile PBS (Sigma) in order to perform the oral administration (100 mg/kg/50 ml).
as §1
Animals: 120 female BALB/c mice weighing 18-20 g (Harlan)
Treatment schedule 1: the transplantable murine breast cancer cells (L-MM3) of Balb/c origin are grown at 37° C. in plastic flasks in a 5% CO2 humidified incubator in DMEM medium containing 5% heat-inactivated FCS, L-glutamine 2 mM, and gentamicin 80 μg/ml. At the time of inoculation, the cells are detached with trypsin-EDTA and re-suspended in the same medium without […].
Unanaesthetised female Balb/c mice received subcutaneous injections in the flank of 4×10^5 cells in 0.2 ml of DMEM.
Four days after inoculation of the tumour, the animals were treated with the molecules according to the following schedule, for the purposes of evaluating neutropenia:
ALC is administered then for 10 days; the animals are sacrificed after 6 hours.
The experimental groups, each consisting of 15 mice, are:
as §2, with “Blood and bone marrow samples are taken for the first treatment schedule animals. On the days they are sacrificed, the mice” for “The mice”
as §3
as §4, with “Double readings are done on each sample, and between one sample and the next, the instrument is washed using isotonic solution, Superfrost” for “Superfrost”
as §5, with “(Shandon) is” for “(Shandon) os”
as §6
Comparison between the neutrophil granulocyte values obtained for the different groups is done using ANOVA.

M109 murine lung cancer = details: for Size of metastases / number of lung metastases (Mean ± SD): day 22 after inoculation
Method: The animals were kept under observation up to day 22 after inoculation of the M109 murine lung cancer cells, and were then sacrificed the lungs removed to determine the number of metastases.
Determination of the number of lung metastases: on day 22 after inoculation of M109 murine lung cancer, the study animals were sacrificed by cervical dislocation. Their lungs were then removed and kept for approximately 5-7 days in 5 ml of Bouin's solution with the following composition: 71% as saturated picric acid solution (Merck), and 24% as 10% formaldehyde (Fluka). When lung metastases were evident, their numbers were counted.
Statistical analysis of the data for tumour size and number of lung metastases was carried out using the non-parametric Mann-Whitney test for unpaired data.

[2] = 6 hours after last administration (Table 4)
[3] = taxol 30 mg/kg i.p. x4, ALC 100 mg/kg, sacrifice 6 hours after last taxol administration
[4] = taxol 30 mg/kg i.p. x4 on alternate days, ALC 100 mg/kg, sacrifice 6 hours after last taxol administration
[5] = taxol i.p., sacrifice 3 days after last taxol administration
[6] = three days after last administration (Table 5)
[7] = L-MM3-bearing mice, sacrifice 6 hours after last taxol

Row | Structure (SMILES) | Size of metastases (M109 murine lung cancer) | number of lung metastases (Mean ± SD) (M109 murine lung cancer) | changes in neutrophils compared to vehicle alone or untreated animals (in words) (female BALB/c mice; [2]) | Absolute neutrophils (female BALB/c mice; [3]) | Lymphocytes (female BALB/c mice; [3]) [%] | Neutrophils (female BALB/c mice; [3]) [%] | WBC (female BALB/c mice; [4]) [Mm^3] | Absolute neutrophils (female BALB/c mice; [5]) | Lymphocytes (female BALB/c mice; [5]) [%] | Neutrophils (female BALB/c mice; [5]) [%] | WBC (female BALB/c mice; [5]) [Mm^3] | changes in neutrophils compared to vehicle alone or untreated animals (in words) (female BALB/c mice; [6]) | further results
1 | CC(=O)O[C@H]1C(=O)[C@@]2(C)[C@H]([C@H](OC(=O)c3ccccc3)[C@]3(O)C[C@H](OC(=O)[C@H](O)[C@@H](NC(=O)c4ccccc4)c4ccccc4)C(C)=C1C3(C)C)[C@]1(OC(C)=O)CO[C@@H]1C[C@@H]2O [Taxol, paclitaxel, reference compound] | S (S = Small (<1 mm diam)) | **9 ± 7.3 |  |  |  |  |  |  |  |  |  |  | neutrophil granulocytes vs vehicle (female BALB/c mice; mouse, in vivo): −64%; reduction in neutrophils (female BALB/c mice; mouse, in vivo): 98%; Absolute neutrophils (female BALB/c mice; mouse, in vivo, ip): ****250 ± /mm^3; Lymphocytes (female BALB/c mice; mouse, in vivo, ip): 95.5%; Neutrophils (female BALB/c mice; mouse, in vivo, ip): 4.5%; WBC (female BALB/c mice; mouse, in vivo, ip): 5855 Mm^3; Lymphocytes ([1]; mouse, in vivo): 98.6 ± 0.2%; Neutrophils ([1]; mouse, in vivo): ****1.3 ± 0.2^ %; Platelets ([1]; mouse, in vivo): 539000 ± 36057 mm^3
2 | CC(=O)O[C@H](CC(=O)[O-])C[N+](C)(C)C [Vehicle + ALC, acetyl L-carnitine] | M, S | **77 ± 13.2 | no changes | 511 ± /mm^3 | 91.5 | 8.5 | 5950 | 625 ± /mm^3 | 89.2 | 10.7 | 6067 | no changes | Absolute neutrophils [1, 7]: ***607 ± 68 ^ /mm^3; Lymphocytes [1, 7]: 87.6 ± 0.9%; Neutrophils [1, 7]: 12.3 ± 0.9%; Platelets [1, 7]: 433000 ± 45731 mm^3; WBC ([1]; L-MM3-bearing mice, taxol 30 mg/kg i.p. x4, ALC 100 mg/kg os 10 days, sacrifice 6 hours after last taxol): 4950 ± 385 Mm^3
3 | CC(=O)O[C@H](CC(=O)[O-])C[N+](C)(C)C [ALC, acetyl L-carnitine] |  |  | no changes | 708 ± /mm^3 | 88.7 | 11.2 | 6452 | 691 ± /mm^3 | 89.9 | 10.1 | 6920 | no changes | polymorphonucleates, change under taxol with acetyl L-carnitine (female BALB/c mice; acetyl L-carnitine 100 mg/kg oral (os) with taxol 30 mg/kg i.p. x4): −23%; polymorphonucleates, change under taxol with acetyl L-carnitine (female BALB/c mice; acetyl L-carnitine 100 mg/kg subcutaneous (sc) with taxol 30 mg/kg i.p. x4): 8-43%; neutrophil granulocytes ([1]; acetyl L-carnitine 100 mg/kg os once daily for 10 days combined with taxol 30 mg/kg i.p. x4): 335 /mm^3; effect on the formation of lung metastases (in words) (M109 murine lung cancer; ALC 100 mg/kg os): mild inhibitory effect
